Source: patent publication US20250255845A1, “USE OF INTERLEUKIN (IL)-17A INHIBITOR IN PREPARATION OF MEDICAMENT FOR TREATING INFLAMMATORY DISEASE” (Xiangnan University, priority 2024, published 2025)

Test system: p-STAT3 (Tyr 705)
Assay: Western blot of p-STAT3 (Tyr 705) in LPS-induced RAW264.7 cells
Format: cell-based, mouse
Method: RAW264.7 cell culture: mouse mononuclear macrophages (RAW264.7, ATCC) are cultured in a complete medium containing 10% fetal bovine serum (FBS), 1% double antibodies (penicillin and streptomycin), and 89% DMEM at 37° C. and 5% CO2. In this experiment, RAW264.7 cells from passages 3 to 8 are used for related test.
LPS (100 ng/ml) is added for stimulation, with or without Tan, and the cell supernatant is collected to detect the contents of NO, IL-23, IL-17A, TNF-α, and IL-6 in the cell supernatant. The cell lysate is collected and the protein expressions (STAT3, p-STAT3 (Ser727), and p-STAT3 (Tyr705)) are detected by Western blot. Total cell RNA is extracted and real-time fluorescence quantitative polymerase chain reaction (PCR) is conducted to detect the expression levels of IL-23, IL-17A, TNF-α, and IL-6 mRNA.
RAW264.7 cells in the logarithmic growth phase were inoculated in 100 mm culture dishes, and the cell density was adjusted to 1.6×10^6 cells/dish. […] The supernatant was collected by centrifugation at 4° C., 12,000 rpm for 5 min, and the protein concentration was determined by BCA method. […] Enhanced Chemiluminescence (ECL) color development was used for detection, and protein band quantification was performed using Image J software.

COc1ccc(-c2cc(=O)c3c(OC)c(OC)c(OC)c(OC)c3o2)cc1 [Tan, tangeretin]
suppression of STAT3 phosphorylation (Tyr 705) compared with positive control Clo (40 μM): comparable efficacy to the positive control | expression of p-STAT3 (Tyr 705) protein (5-40 μM, vs LPS group, P<0.001, dose-dependent): inhibited
